pIC50: −log10 of the molar value.
Assay: Antagonist activity at pig cerebral cortex CCK2 […] by Packbard-Cobra counter analysis

SMILES | pIC50
CC(C)CNC1=C(Cl)C(=O)OC1OCc1ccccc1 (configuration not stated) | 7.07
C#CCOC1OC(=O)C(Cl)=C1N(CC(C)C)C1CCCCC1 (configuration not stated) | 7.10

— BindingDB's records for PubMed 35598527 (Universidade Federal De Minas Gerais, 2022)
